The record followed here is US20020160986A1, “Compounds having activity as inhibitors of cytochrome P450RAI” (priority 2000, published 2002).

One series relates to skin of hairless mice. Particulars: topical in acetone, once daily days 1 through 5, mean ±SD, range 0-21. The text has this: This irritation is a direct result of activation of the RAR nuclear receptors. Analysis of retinoid topical irritation is also a highly reproducible method of determining in vivo retinoid potency. The SKH1-hrBR or hairless mouse provides a convenient animal model of topical irritation, since retinoid-induced skin flaking and abrasion can be readily scored by eye (Standeven et al., “Specific antagonist of retinoid toxicity in mice.” Toxicol. Appl. Pharmacol., 138:169-175, (1996); Thacher, et al., “Receptor specificity of retinoid-induced hyperplasia. Effect of RXR-selective agonists and correlation with topical irritation”. J. Pharm. Exp. Ther., 282:528-534, (1997)).
Female hairless mice (Crl:SKH1-hrBR), 5-7 weeks old, were obtained from Charles River Breeding Labs (Wilmington, Mass.). […]
The mice were weighed daily and the dorsal skin was graded daily using separate semi-quantitative scales to determine flaking and abrasion. […]
Flaking onset score (2) and average severity score (3) are summed and divided by two. […] Composite flaking scores are calculated for each individual animal in a group, averaged, and rounded to the nearest integer. […]
Abrasion onset score (5) and average severity score (6) are summed and divided by two. […] Composite abrasion scores are calculated for each individual animal in a group, averaged and rounded to the nearest integer. […]

The next series concerns the target T1, RARβ (Homo sapiens, UniProt P10826).
T1 sequence (P10826 1-455): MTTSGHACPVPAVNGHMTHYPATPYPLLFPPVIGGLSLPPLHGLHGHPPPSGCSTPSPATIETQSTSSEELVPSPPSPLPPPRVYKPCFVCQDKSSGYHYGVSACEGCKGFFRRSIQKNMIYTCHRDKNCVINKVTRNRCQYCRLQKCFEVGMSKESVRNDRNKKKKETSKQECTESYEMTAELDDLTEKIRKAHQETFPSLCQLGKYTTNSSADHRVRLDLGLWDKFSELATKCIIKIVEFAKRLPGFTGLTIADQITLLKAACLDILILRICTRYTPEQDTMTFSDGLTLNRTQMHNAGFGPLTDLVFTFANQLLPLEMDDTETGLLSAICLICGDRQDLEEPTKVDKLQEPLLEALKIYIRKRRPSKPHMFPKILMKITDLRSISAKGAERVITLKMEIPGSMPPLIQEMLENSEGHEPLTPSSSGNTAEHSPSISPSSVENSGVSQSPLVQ
The experiment in a line: ligand binding assay, RARβ. Particulars: read-out: RAR β Kd. The text has this:
(§1) Assays described below measure the ability of a compound to bind to, and/or activate various retinoid receptor subtypes. When in these assays a compound binds to a given receptor subtype and activates the transcription of a reporter gene through that subtype, then the compound is considered an agonist of that receptor subtype. […] In the below described assays the ability of the compounds to bind to RAR60 , RAR62 , RARγ, RXR60 , RXR62 , and RXRγ receptors, and the ability or inability of the compounds to activate transcription of a reporter gene through these receptor subtypes can be tested.
A holoreceptor transactivation assay and a ligand binding assay which measure the antagonist/agonist like activity of the compounds of the invention, or their ability to bind to the several retinoid receptor subtypes, respectively, are described in published PCT Application No. WO WO93/11755 (particularly on pages 30-33 and 37-41) published on Jun. 24, 1993, the specification of which is also incorporated herein by reference. […] The results obtained in this assay are expressed in EC50 numbers, as they are also in the chimeric receptor transactivation assay. The results of ligand binding assay are expressed in Kd numbers. (See Cheng et al. Biochemical Pharmacology Vol. 22 pp 3099-3108, expressly incorporated herein by reference.)

The target in series [1] is T2, P450RAI-1 stably transfected HeLa cells (Homo sapiens, UniProt O43174).
T2 construct: expressed in transfected cells; host or cells: HeLa cells, stably transfected, hygromycin selection
T2 sequence (O43174 1-497): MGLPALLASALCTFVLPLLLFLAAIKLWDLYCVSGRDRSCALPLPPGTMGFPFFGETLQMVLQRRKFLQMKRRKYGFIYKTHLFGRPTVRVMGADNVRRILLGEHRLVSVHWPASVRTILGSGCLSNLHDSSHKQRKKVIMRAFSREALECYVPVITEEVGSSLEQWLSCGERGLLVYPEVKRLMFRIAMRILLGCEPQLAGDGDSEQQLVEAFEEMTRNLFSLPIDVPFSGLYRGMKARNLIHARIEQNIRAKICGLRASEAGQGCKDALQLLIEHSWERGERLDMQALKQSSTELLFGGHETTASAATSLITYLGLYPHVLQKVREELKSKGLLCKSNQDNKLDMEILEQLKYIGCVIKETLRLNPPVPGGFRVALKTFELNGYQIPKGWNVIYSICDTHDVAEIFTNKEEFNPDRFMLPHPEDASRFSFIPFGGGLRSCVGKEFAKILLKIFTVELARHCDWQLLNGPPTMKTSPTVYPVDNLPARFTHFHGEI
The experiment in a line: P450RAI-1 cell-based inhibitor assay. Particulars: inhibition of all-trans-RA metabolism, [3H]-RA, 3 hours at 37° C.; read-out: P450RAI INHIBITION DATA INTACT HELA IC50. The protocol: P450RAI-1 Cell-Based Inhibitor Assay:
P450RAI -1 stably transfected HeLa cells are maintained in […] tissue culture dishes in Modified Eagle's Medium (MEM) containing 10% Fetal Bovine Serum (FBS) and 100 μg/ml hygromycin. Exponentially growing cells are harvested by incubating in trypsin. Cells are then washed with 1× Phosphate Buffered Saline (PBS) and plated in a 48-well plate at 5×10^5 cells in 0.2 ml MEM medium containing 10% FBS and 0.05 μCi [^3H]-RA in the presence or absence of increasing concentrations of the test compounds. The compounds are diluted in 100% DMSO and then added in triplicate wells at either 10, 1 or 0.1 μM final concentration. As a positive control for RA metabolism inhibition, cells are also incubated with ketoconazole at 100, 10 and 1 μM. Cell are incubated for 3 hours at 37° C. […] The water soluble radioactivity is quantified using a β-scintillation counter. IC50 values represent the concentration of inhibitor required to inhibit all-trans-RA metabolism by 50 percent and are derived manually from log-transformed data.

In the next series the target is T3, RARα (Homo sapiens, UniProt P10276).
T3 sequence (P10276 1-462): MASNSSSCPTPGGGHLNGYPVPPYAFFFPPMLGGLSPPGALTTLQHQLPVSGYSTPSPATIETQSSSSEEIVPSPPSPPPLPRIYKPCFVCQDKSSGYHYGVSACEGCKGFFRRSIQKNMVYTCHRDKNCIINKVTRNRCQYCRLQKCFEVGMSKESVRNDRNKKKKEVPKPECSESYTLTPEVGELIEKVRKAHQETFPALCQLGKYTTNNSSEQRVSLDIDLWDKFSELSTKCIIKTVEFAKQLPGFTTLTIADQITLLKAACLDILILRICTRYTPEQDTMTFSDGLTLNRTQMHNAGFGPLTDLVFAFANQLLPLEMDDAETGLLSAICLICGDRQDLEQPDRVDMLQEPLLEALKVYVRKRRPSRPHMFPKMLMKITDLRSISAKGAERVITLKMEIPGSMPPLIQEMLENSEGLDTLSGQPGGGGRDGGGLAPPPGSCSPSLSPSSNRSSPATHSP
Description: ligand binding assay, RARα. Particulars: read-out: RAR α Kd.
Description: as §1
A holoreceptor transactivation assay and a ligand binding assay which measure the antagonist/agonist like activity of the compounds of the invention, or their ability to bind to the several retinoid receptor subtypes, respectively, are described in published PCT Application No. WO WO93/11755 (particularly on pages 30-33 and 37-41) published on Jun. 24, 1993, the specification of which is also incorporated herein by reference. A detailed experimental procedure for holoreceptor transactivations has been described by Heyman et al. Cell 68,397-406, (1992); Allegretto et al. J. Biol. Chem. 268,26625-26633, and Mangelsdorf et al. The Retinoids: Biology, Chemistry and Medicine, pp 319-349, Raven Press Ltd., New York, which are expressly incorporated herein by reference. […]

Where two headings read alike, the source gives them in different places.

With `CC1(C)CCC(=O)c2ccc(C#Cc3ccc(CC(=O)O)c(F)c3)cc21` [Compound 15, [2-Fluoro-4-(8.8-dimethyl-5-oxo-5,6,7,8-tetrahydro-naphthalene-2-yl-ethynyl)phenyl]-acetic acid], the “Cutaneous Toxicity Score (Blackjack Score)” value with skin of hairless mice (100 nmole (nmol/25 g)) is reported as 1 ± 1; with skin of hairless mice (1000 nmole (nmol/25 g)), 5 ± 2.

What is called Kd is the equilibrium constant for the complex coming apart. In general, IC50 refers to the midpoint of a concentration-inhibition curve. `Cc1cc(C#Cc2ccc(CC(=O)O)cc2)ccc1Cn1ccnc1` [Compound 121, [4-(4-Imidazol-1-yl-methyl-3-methyl-phenylethynyl)-phenyl]-acetic acid]: the dissociation constant (Kd) at RARβ is over 100 µM; on RARα it was over 10 µM. Besides, the IC50 in series [1] was 0.18 µM.
